For this test, the system named is tumour cell line 4T1 (breast cancer). As to the kind of experiment: In vitro MTT cytotoxicity assay, 4T1. It is filed as cell-based. The protocol: The cytotoxic activity of Doxo-Hyalusphere was tested on tumour cell lines 4T1 (breast cancer) and A549 (lung cancer), using the in vitro MTT assay.
For the purpose of the test, cell line 4T1 was cultured in RPMI medium (Gibco) and A549 in DMEM (Gibco). 10% FBS (foetal bovine serum, Gibco), 1% L-glutamine (Gibco) and 1% penicillin/streptomycin (Gibco) were added to both culture media at the temperature of 37° C. in the presence of 5% CO2.
The cells were plated in 24-well microplates (Nunc) (50000 cells per well in 500 μl of medium). After 12 hours, 100 μl of culture medium containing the various conditions studied was added to each well: • 1) Nanoparticles with PEG (PEG-NP); • 2) Nanoparticles with rHyal_Sk (Hyal-NP); • 3) Doxorubicin in solution (Free DOX); • 4) Doxorubicin bonded to nanoparticles (DOX-NP) • 5) Doxo-HyaluSpheres (DOX-Hyal-NP),
The nanoparticle concentrations were established at 40000 per cell, and the plates were incubated for 24 and 96 hours. […]
Metabolic activity was evaluated after 30 minutes by reading the optical density (OD) with an ELISA Reader (Bio-Rad) spectrophotometer at the wavelength of 570 nm. […] The fraction of viable cells was determined on the basis of the ratio between the mean optical density of the treated samples and that of the untreated control sample.

Regarding `COc1cccc2c1C(=O)c1c(O)c3c(c(O)c1C2=O)C[C@@](O)(C(=O)CO)C[C@@H]3O[C@H]1C[C@H](N)[C@H](O)[C@H](C)O1` [Free-DOX, Doxorubicin], the “tumour cell survival compared with the doxorubicin nanosystems” value (free doxorubicin 0.75 μg/mL) is “Quantitatively identical results”. Also, the cell death entry (free drug equivalent to 3 nM (1.6 ng/mL), 24 and 96 hours) is reported as “did not lead to cell death”.

The record behind these values is US12115229B2, “Nanosystems for controlled transport of active molecules for diagnostic, prognostic and therapeutic purposes” (FIDIA FARMACEUTICI S.P.A., priority 2015, dated 2024).
